Experimental data from patent publication US10721934B2, “Enhanced preservative” (Arch Chemicals, Inc., priority 2013, dated 2020).
Converted amounts (≈) assume the structure as drawn. One block for each compound: values may come before it.

Assays:
Format in all cases: cell-based
[1] = tested on: Pseudomonas aeruginosa ATCC 15442; assay: Minimum Inhibitory Concentration (MIC) test, 96 well microtiter plate; settings: for biocide enhancing effect on zinc pyrithione: MIC of blends with ZnPT, Table 1; for MIC: Pseudomonas aeruginosa, ATCC15442, single chemical
Experimental: Microorganisms: Pseudomonas aeruginosa ATCC 15442
(§1) MIC set up: A 96 well microtiter plate Minimum Inhibitory Concentration (MIC) test was run in broth suitable for the test organism. Serially diluted actives were prepared in sterilized water, and the start-up concentration varied depending on the efficacy range. Inocula prepared in 2× suitable broth was added into each well, and the final concentrations of bacteria were adjusted to approximately 5×10^5.

[2] = tested on: mixed bacterial inoculum (Pseudomonas aeruginosa, Enterobacter cloacae, Escherichia coli, Acinetobacter calcoaceticus); assay: Repeated inoculation of standard acrylic paint, streak plate rating
Experimental: In the following experiments, a pyrithione, an isothiazolinone, and a biocide enhancing agent in accordance with the present disclosure were combined with a standard acrylic paint. The concentrations of the pyrithione, the isothiazolinone and the biocide enhancing agent were varied. The pyrithione, the isothiazolinone and the biocide enhancing agent were added alone and in various mixtures to the standard acrylic paint.
The acrylic paint was then inoculated three times using a mixed bacterial inoculum. The bacterial inoculum, which comprised a bacterial suspension in water, contained the following four bacteria in equal proportions.
The samples were streak plated at 24, 48, and 72 hours after inoculation. The streak plates were rated as follows;

[3] = tested on: Aspergillus brasiliensis; assay: MIC test, 96 well microtiter plate; settings: single chemical
Experimental: as §1
(§2) Further MIC tests were conducted using different amine compounds in combination with a pyrithione and two different isothiazolinones. The procedures described in Example No. 1 were used.

[4] = tested on: Aureobasidium pullulans; assay: MIC test, 96 well microtiter plate; settings: single chemical
Experimental: as §1, §2

[5] = tested on: Candida albicans; assay: MIC test, 96 well microtiter plate; settings: single chemical
Experimental: as §1, §2

[6] = tested on: Escherichia coli; assay: MIC test, 96 well microtiter plate; settings: single chemical
Experimental: as §1, §2

[7] = tested on: Staphylococcus aureus; assay: MIC test, 96 well microtiter plate; settings: single chemical
Experimental: as §1, §2

SMILES: CCCCn1sc2ccccc2c1=O [BBIT]
Minimum Inhibitory Concentration [3]: 1.9 ppm
Minimum Inhibitory Concentration [4]: 2.5 ppm
Minimum Inhibitory Concentration [5]: 3.75 ppm
Minimum Inhibitory Concentration [6]: 80.0 ppm
Minimum Inhibitory Concentration [7]: 5.0 ppm

SMILES: CCCCCCCCCCCCN1CCOCC1 [DDM, 4-Dodecylmorpholine]
streak plate rating ([2]; Set Three, DDM 1200 ppm, 1st inoculation 24 h): 5 (>45 viable microorganisms Severely contaminated)
streak plate rating ([2]; Set Three, DDM 1200 ppm, 1st inoculation 48 h): 5 (>45 viable microorganisms Severely contaminated)
streak plate rating ([2]; Set Three, DDM 1200 ppm, 1st inoculation 72 h): 5 (>45 viable microorganisms Severely contaminated)
streak plate rating ([2]; Set Three, DDM 1200 ppm, 2nd inoculation 24 h): 5 (>45 viable microorganisms Severely contaminated)
streak plate rating ([2]; Set Three, DDM 1200 ppm, 2nd inoculation 48 h): 5 (>45 viable microorganisms Severely contaminated)
streak plate rating ([2]; Set Three, DDM 1200 ppm, 2nd inoculation 72 h): 5 (>45 viable microorganisms Severely contaminated)
streak plate rating ([2]; Set Three, DDM 1200 ppm, 3rd inoculation 24 h): 5 (>45 viable microorganisms Severely contaminated)
streak plate rating ([2]; Set Three, DDM 1200 ppm, 3rd inoculation 48 h): 5 (>45 viable microorganisms Severely contaminated)
streak plate rating ([2]; Set Three, DDM 1200 ppm, 3rd inoculation 72 h): 5 (>45 viable microorganisms Severely contaminated)

More lines, main results first:

MIC [1]: 200 µg/mL (≈ 1080 µM)
SMILES: CCCCCCCCCCCCN [DDA, 1-dodecylamine]
biocide enhancing effect on the isothiazolin ([1]; MIC of blends with BIT, Table 2): had an enhancing effect on the isothiazolin
biocide enhancing effect on zinc pyrithione [1]: enhance the effectiveness of the zinc pyrithione
streak plate rating ([2]; Set Four, DDA 600 ppm, 1st inoculation 24 h): 5 (>45 viable microorganisms Severely contaminated)
streak plate rating ([2]; Set Four, DDA 600 ppm, 1st inoculation 48 h): 2 (6-15 viable microorganisms Lightly contaminated)
streak plate rating ([2]; Set Four, DDA 600 ppm, 1st inoculation 72 h): 0
streak plate rating ([2]; Set Four, DDA 600 ppm, 2nd inoculation 24 h): 5 (>45 viable microorganisms Severely contaminated)
streak plate rating ([2]; Set Four, DDA 600 ppm, 2nd inoculation 48 h): 5 (>45 viable microorganisms Severely contaminated)
streak plate rating ([2]; Set Four, DDA 600 ppm, 2nd inoculation 72 h): 5 (>45 viable microorganisms Severely contaminated)
streak plate rating ([2]; Set Four, DDA 600 ppm, 3rd inoculation 24 h): 5 (>45 viable microorganisms Severely contaminated)
streak plate rating ([2]; Set Four, DDA 600 ppm, 3rd inoculation 48 h): 5 (>45 viable microorganisms Severely contaminated)
streak plate rating ([2]; Set Four, DDA 600 ppm, 3rd inoculation 72 h): 5 (>45 viable microorganisms Severely contaminated)
streak plate rating ([2]; Set One, DDA 600 ppm, 1st inoculation 24 h): 5 (>45 viable microorganisms Severely contaminated)
streak plate rating ([2]; Set One, DDA 600 ppm, 1st inoculation 48 h): 5 (>45 viable microorganisms Severely contaminated)
streak plate rating ([2]; Set One, DDA 600 ppm, 1st inoculation 72 h): 5 (>45 viable microorganisms Severely contaminated)
streak plate rating ([2]; Set One, DDA 600 ppm, 2nd inoculation 24 h): 5 (>45 viable microorganisms Severely contaminated)
streak plate rating ([2]; Set One, DDA 600 ppm, 2nd inoculation 48 h): 5 (>45 viable microorganisms Severely contaminated)
streak plate rating ([2]; Set One, DDA 600 ppm, 3rd inoculation 24 h): 5 (>45 viable microorganisms Severely contaminated)
streak plate rating ([2]; Set One, DDA 600 ppm, 3rd inoculation 48 h): 5 (>45 viable microorganisms Severely contaminated)
streak plate rating ([2]; Set One, DDA 600 ppm, 3rd inoculation 72 h): 5 (>45 viable microorganisms Severely contaminated)
streak plate rating ([2]; Set One, DDA 900 ppm, 1st inoculation 24 h): 5 (>45 viable microorganisms Severely contaminated)
streak plate rating ([2]; Set One, DDA 900 ppm, 1st inoculation 48 h): 5 (>45 viable microorganisms Severely contaminated)
streak plate rating ([2]; Set One, DDA 900 ppm, 1st inoculation 72 h): 5 (>45 viable microorganisms Severely contaminated)
streak plate rating ([2]; Set One, DDA 900 ppm, 2nd inoculation 24 h): 5 (>45 viable microorganisms Severely contaminated)
streak plate rating ([2]; Set One, DDA 900 ppm, 2nd inoculation 48 h): 5 (>45 viable microorganisms Severely contaminated)
streak plate rating ([2]; Set One, DDA 900 ppm, 3rd inoculation 24 h): 5 (>45 viable microorganisms Severely contaminated)
streak plate rating ([2]; Set One, DDA 900 ppm, 3rd inoculation 48 h): 5 (>45 viable microorganisms Severely contaminated)
streak plate rating ([2]; Set One, DDA 900 ppm, 3rd inoculation 72 h): 5 (>45 viable microorganisms Severely contaminated)
streak plate rating ([2]; Set One, DDA 1200 ppm, 1st inoculation 24 h): 5 (>45 viable microorganisms Severely contaminated)
streak plate rating ([2]; Set One, DDA 1200 ppm, 1st inoculation 48 h): 5 (>45 viable microorganisms Severely contaminated)
streak plate rating ([2]; Set One, DDA 1200 ppm, 1st inoculation 72 h): 5 (>45 viable microorganisms Severely contaminated)
streak plate rating ([2]; Set One, DDA 1200 ppm, 2nd inoculation 24 h): 5 (>45 viable microorganisms Severely contaminated)
streak plate rating ([2]; Set One, DDA 1200 ppm, 2nd inoculation 48 h): 5 (>45 viable microorganisms Severely contaminated)
streak plate rating ([2]; Set One, DDA 1200 ppm, 3rd inoculation 24 h): 5 (>45 viable microorganisms Severely contaminated)
streak plate rating ([2]; Set One, DDA 1200 ppm, 3rd inoculation 48 h): 5 (>45 viable microorganisms Severely contaminated)
streak plate rating ([2]; Set One, DDA 1200 ppm, 3rd inoculation 72 h): 5 (>45 viable microorganisms Severely contaminated)
streak plate rating ([2]; Set One, DDA 1800 ppm, 1st inoculation 24 h): 2 (6-15 viable microorganisms Lightly contaminated)
streak plate rating ([2]; Set One, DDA 1800 ppm, 1st inoculation 48 h): 3 (16-30 viable microorganisms Moderately contaminated)
streak plate rating ([2]; Set One, DDA 1800 ppm, 1st inoculation 72 h): 1 (1-5 viable microorganisms Very lightly contaminated)
streak plate rating ([2]; Set One, DDA 1800 ppm, 2nd inoculation 24 h): 5 (>45 viable microorganisms Severely contaminated)
streak plate rating ([2]; Set One, DDA 1800 ppm, 2nd inoculation 48 h): 5 (>45 viable microorganisms Severely contaminated)
streak plate rating ([2]; Set One, DDA 1800 ppm, 3rd inoculation 24 h): 5 (>45 viable microorganisms Severely contaminated)
streak plate rating ([2]; Set One, DDA 1800 ppm, 3rd inoculation 48 h): 5 (>45 viable microorganisms Severely contaminated)
streak plate rating ([2]; Set One, DDA 1800 ppm, 3rd inoculation 72 h): 5 (>45 viable microorganisms Severely contaminated)
streak plate rating ([2]; Set Two, DDA alone, ppm not given, 1st inoculation 24 h): 5 (>45 viable microorganisms Severely contaminated)
streak plate rating ([2]; Set Two, DDA alone, ppm not given, 1st inoculation 48 h): 5 (>45 viable microorganisms Severely contaminated)
streak plate rating ([2]; Set Two, DDA alone, ppm not given, 1st inoculation 72 h): 5 (>45 viable microorganisms Severely contaminated)
streak plate rating ([2]; Set Two, DDA alone, ppm not given, 2nd inoculation 24 h): 5 (>45 viable microorganisms Severely contaminated)
streak plate rating ([2]; Set Two, DDA alone, ppm not given, 2nd inoculation 48 h): 5 (>45 viable microorganisms Severely contaminated)
streak plate rating ([2]; Set Two, DDA alone, ppm not given, 2nd inoculation 72 h): 5 (>45 viable microorganisms Severely contaminated)
streak plate rating ([2]; Set Two, DDA alone, ppm not given, 3rd inoculation 24 h): 5 (>45 viable microorganisms Severely contaminated)
streak plate rating ([2]; Set Two, DDA alone, ppm not given, 3rd inoculation 48 h): 5 (>45 viable microorganisms Severely contaminated)
streak plate rating ([2]; Set Two, DDA alone, ppm not given, 3rd inoculation 72 h): 5 (>45 viable microorganisms Severely contaminated)

MIC ([3]; Aspergillus brasiliensis, read-out: Minimum Inhibitory Concentration): 500 µg/mL
MIC ([4]; Aureobasidium pullulans, read-out: Minimum Inhibitory Concentration): 500 µg/mL
MIC ([5]; Candida albicans, read-out: Minimum Inhibitory Concentration): 375 µg/mL
MIC ([6]; Escherichia coli, read-out: Minimum Inhibitory Concentration): 750 µg/mL
MIC ([7]; Staphylococcus aureus, read-out: Minimum Inhibitory Concentration): 250 µg/mL
SMILES: CCCCCCCC[N+](C)(C)[O-] [DMOA Oxide, N,N-dimethyloctylamine-n-oxide]
Minimum Inhibitory Concentration [3]: 500 ppm

MIC [1]: > 640 µg/mL
SMILES: CCCCCCCCCCCCCCCCCCN(C)C [DMODA, N,N-Dimethyloctadecylamine]
biocide enhancing effect on zinc pyrithione [1]: enhance the effectiveness of the zinc pyrithione
